We go through four compounds from patent publication US9062284B2, “Uses and detection of herbicide resistance genes for resistance to aryloxyalkanoate herbicides” (Dow ArgoSciences LLC, priority 2007, dated 2015).

Molecules are shown by their SMILES.

The subject of assay [1] is AAD-13 (v1) gene T1 tobacco plants. Briefly: Herbicide response of AAD-13 (v1) T1 tobacco. The class given is in vivo, Nicotiana tabacum. Particulars: for % Injury 20-40% (individuals) / % Injury <20% (individuals) / % Injury >40% (individuals) / % Injury Ave: 2 WAT; for plant response to foliar applied auxinic herbicides (injury): 14 days after application, line pDAB4114[1]003.006. The text has this: Surviving T1 plants were then randomly assigned to various rates of 2,4-D. For tobacco, 140 g ae/ha 2,4-D is an effective dose to distinguish sensitive plants from ones with meaningful levels of resistance. Elevated rates were also applied to determine relative levels of resistance (140, 560, or 2240 g ae/ha).
All auxin herbicide applications were applied by track sprayer in a 187 L/ha spray volume. 2,4-D used was the commercial dimethylamine salt formulation (456 g ae/L, NuFarm, St Joseph, Mo.). Some T1 individuals were subjected to alternative commercial herbicides instead of a phenoxy auxin. One point of interest was determining whether the pyridyloxyacetate auxin herbicides, triclopyr and fluoroxypyr, could be effectively degraded in planta. Herbicides were applied to T1 plants with use of a track sprayer in a 187 L/ha spray volume.
T1 transformants were first selected from the background of untransformed plants using a 2,4-D selection scheme. Table 15 compares the response of AAD-13 (v1) and control genes to impart 2,4-D resistance to tobacco T1 transformants. Response is presented in terms of % visual injury 2 WAT. […] An arithmetic mean and standard deviation is presented for each treatment. The range in individual response is also indicated in the last column for each rate and transformation. KY160 untransformed tobacco served as an auxin-sensitive control. The AAD-13 (v1) gene imparted herbicide resistance to individual T1 tobacco plants.
The ability of AAD-13 (v1) to provide resistance to other aryloxyalkanoate auxin herbicides in transgenic tobacco was determined by foliar application of various substrates. Extra T1 generation plants following the T1 progeny testing were sprayed with the use of a track sprayer set at 187 L/ha. The plants were sprayed with a range of pyridyloxyacetate herbicides: 140-1120 g ae/ha triclopyr (Garlon 3A, Dow AgroSciences) and 280-1120 g ae/ha fluoroxypyr (Starane, Dow AgroSciences). All applications were formulated in water. Each treatment was replicated 3 times. Plants were evaluated at 3 and 14 days after treatment.

In assay [2] the target is T1, AAD-13 (v2) (Sphingobium herbicidovorans, UniProt Q700X4).
T1 construct: His tag (C); made in house; host or cells: E. coli BL-21, pET-26b(+)
T1 sequence (Q700X4 other isoform, or with tags, fused parts or gaps): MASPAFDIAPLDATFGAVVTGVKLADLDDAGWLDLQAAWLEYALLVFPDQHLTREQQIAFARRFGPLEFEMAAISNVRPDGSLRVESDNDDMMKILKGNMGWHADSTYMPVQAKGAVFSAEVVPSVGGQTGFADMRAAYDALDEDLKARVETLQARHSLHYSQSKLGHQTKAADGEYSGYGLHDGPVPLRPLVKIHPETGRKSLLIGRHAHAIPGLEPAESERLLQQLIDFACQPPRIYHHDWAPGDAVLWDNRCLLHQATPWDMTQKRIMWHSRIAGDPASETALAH
The class given is biochemical. Particulars: substrate 1 mM; rate as percentage of 2,4-D rate in same sample set; propionate rates divided by two. The text has this:
In order to test a broad range of substrates, the production of succinate from the breakdown of α-ketoglutarate was detected spectrophotometricly using a protocol based on the method of Luo et. al. (2006) (Anal. Biochem. 353: 69-74). As depicted in FIG. 3, the concomitant breakdown of α-ketoglutarate and the substrate of interest via AAD-13, results in the production of succinate. Succinate is further modified to succinyl-CoA by succinyl-CoA synthetase which consumes ATP and produces ADP. ADP is then consumed by the commonly employed pyruvate kinase/lactate dehydrogenase enzymatic coupling system (Sigma P0294). The resulting conversion of NADH to NAD is monitored spectrophotometrically at 340 nm.
Identification of AAD-13 (v2) substrates in vitro was based on enzymatic activity detected during continuous spectrophotometric monitoring of a 0.2 mL reaction volume in a 96 well microtiter plate. Reaction conditions were as follows: 100 mM MOPS pH 7.0, 0.4 mM NADH, 0.4 mM ATP, 0.4 mM CoA, 1 mM PEP, 10 mM MgCl2, 0.1 mM […] (solubilized in HCl), and 0.1 mM ascorbate, 1 mM α-ketoglutarate and sufficient AAD-13 (v2) to produce an observable rate in the presence of 2,4-D. Coupling enzymes (SCS/PK/LDH) were adjusted by batch to ensure adequate coupling, and potential substrates were generally assayed at 1 mM. Alterations in substrate concentrations were made as needed to adjust for solubility. Reactions were initiated by either the addition of AAD-13 (v2) or potential substrate. The rate of substrate independent conversion of α-ketoglutarate to succinate by AAD was monitored under the above assay conditions and subtracted from the observed reaction rates. […] Additionally, propionate compounds were checked for pyruvate contamination by spectrophotometrically monitoring the consumption of NADH in the presence of compound and PK/LDH.
Reaction rates are reported as a percentage of the 2,4-D reaction rate obtained in the same sample set. […] It should be noted that faster rates can be more difficult to accurately compare depending on the percentage of available substrate consumed. […] As a result, highly efficient substrates will be properly grouped when compared to low efficiency substrates. Within the grouping of highly efficient substrates however, compounds may not be quantitatively separated by a screen using single rates of substrate and AAD.

On to `CNC.O=C(O)COc1ccc(Cl)cc1Cl` [2,4-D DMA], for which, in assay [1] (140 g ae/ha postemergence), the “% Injury 20-40% (individuals)” value came to 0, the “% Injury <20% (individuals)” value is on record as 3, the “% Injury >40% (individuals)” value was determined as 0 and the “% Injury Ave” value came to 0.0%. Moreover, in assay [1] (560 g ae/ha postemergence), the “% Injury 20-40% (individuals)” value is 0, the “% Injury <20% (individuals)” value was 3, the “% Injury >40% (individuals)” value stood at 0 and the “% Injury Ave” value was determined as 0.0%. Besides, in assay [1] (2240 g ae/ha postemergence), the “% Injury 20-40% (individuals)” value was determined as 0, the “% Injury <20% (individuals)” value was 3, the “% Injury >40% (individuals)” value amounted to 0 and the “% Injury Ave” value amounted to 2.0%.

As to `C[C@@H](Oc1ccc(Cl)cc1Cl)C(=O)O` [R-dichloroprop, R-dichlorprop], in assay [2], the “% of 24D activity” value turned out to be 19%.

Turning to `Nc1c(Cl)c(F)nc(OCC(=O)O)c1Cl` [fluoroxypyr], the “% of 24D activity” value in assay [2] is on record as 67%. The figures for the “plant response to foliar applied auxinic herbicides (injury)” value in assay [1] (280 g ae/ha), in assay [1] (560 g ae/ha) and in assay [1] (1120 g ae/ha) were 7.0, 25.0 and 37.0, respectively. Moreover, the “rate up to which significant tolerance is provided” value in assay [1] (foliar application, T1 tobacco) is listed as “up to 1120 g ae/ha”.

With `O=C(O)COc1nc(Cl)c(Cl)cc1Cl` [triclopyr], the “% of 24D activity” value in assay [2] came out at 6%. The “plant response to foliar applied auxinic herbicides (injury)” value in assay [1] (280 g ae/ha) is recorded as 53.0; in assay [1] (560 g ae/ha), 65.0; in assay [1] (1120 g ae/ha) it was 75.0.
